# Assay results: PubChem BioAssay (NCI)
#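 In this assay, cells in 96-well plates receive the compound at five concentrations for 48 hours. Endpoints are linearly interpolated between the surrounding concentrations. TGI is the concentration that stops growth completely.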
# Legend:
# Experiment in all cases: NCI anticancer screen, dose series, 48 h
# [1] = test system: 786-0 renal
# [2] = test system: CAKI-1 renal
# [3] = test system: HOP-62 NSCLC
# [4] = test system: K-562 leukemia
# [5] = test system: KM12 colon
# [6] = test system: MDA-N
# [7] = test system: SF-295 CNS
# [8] = test system: SF-539 CNS
# [9] = test system: SK-MEL-28 melanoma
# [10] = test system: SW-620 colon
# [11] = test system: TK-10 renal
SMILES,TGI [1],TGI [2],TGI [3],TGI [4],TGI [5],TGI [6],TGI [7],TGI [8],TGI [9],TGI [10],TGI [11]
N=C(N)SCCON1C(=O)c2ccccc2C1=O,> 100 µM,> 100 µM,> 100 µM,> 100 µM,> 100 µM,> 100 µM,> 100 µM,> 100 µM,> 100 µM,> 100 µM,> 100 µM
CC(=O)O/C=C\OC1CCCC1(c1ccccc1)c1ccccc1 (centres undefined),7.75 µM,14.3 µM,25.4 µM,9.05 µM,12.9 µM,5 µM,23 µM,3.68 µM,4.59 µM,4.72 µM,9.33 µM
O=C(Nc1ccccc1)O/N=C(/CBr)c1ccccc1,26.6 µM,31.7 µM,68.7 µM,> 100 µM,44.2 µM,24.2 µM,70.1 µM,29.5 µM,43.2 µM,> 100 µM,33.8 µM
CCNC(=O)Nc1cccc(C)n1,> 100 µM,> 100 µM,> 100 µM,> 100 µM,> 100 µM,> 100 µM,> 100 µM,> 100 µM,> 100 µM,> 100 µM,> 100 µM
c1ccc(CNc2c3c(nc4ccccc24)CCC3)cc1,28.5 µM,45.3 µM,25.6 µM,26.2 µM,40.3 µM,30.4 µM,22 µM,36.7 µM,24.3 µM,28.2 µM,33.6 µM
Cc1ccc(S(=O)(=O)N/C(=C\C=C\c2ccccc2)C(=O)C(C)(C)C)cc1,73.6 µM,> 100 µM,44 µM,> 100 µM,> 100 µM,> 100 µM,> 100 µM,> 100 µM,> 100 µM,> 100 µM,> 100 µM
O=C(NCCN(CCNC(=O)c1cccc(=O)n1O)CCN(CCNC(=O)c1cccc(=O)n1O)CCNC(=O)c1cccc(=O)n1O)c1cccc(=O)n1O,> 100 µM,> 100 µM,> 100 µM,> 100 µM,> 100 µM,> 100 µM,> 100 µM,> 100 µM,> 100 µM,> 100 µM,> 100 µM
CN(C)c1ccc(/C=N/Nc2nc3ccccc3c(=O)n2-c2ccccc2)cc1,83.3 µM,> 100 µM,97.8 µM,> 100 µM,> 100 µM,> 100 µM,> 100 µM,72 µM,> 100 µM,> 100 µM,> 100 µM
COC(=O)c1cc(C)ccc1CC(Cc1cccc(C)c1)C(=O)OC (centres undefined),> 100 µM,> 100 µM,> 100 µM,> 100 µM,> 100 µM,> 100 µM,> 100 µM,> 100 µM,> 100 µM,> 100 µM,> 100 µM
CCOC(=O)/C(=C\NCC(O)c1ccccc1)c1nc2ccccc2[nH]1 (centres undefined),> 100 µM,> 100 µM,> 100 µM,59.6 µM,67.9 µM,82.7 µM,67 µM,47.8 µM,39.6 µM,> 100 µM,> 100 µM
CC(C)Oc1c(-c2c(OC(C)C)c(=O)c2=O)c(=O)c1=O,> 66 µM,> 100 µM,> 85.2 µM,> 54.7 µM,> 59.6 µM,> 38.6 µM,> 100 µM,> 100 µM,> 100 µM,> 62 µM,> 100 µM
CSc1nc(NC2CCCC2)c2cc[nH]c2n1,> 100 µM,> 100 µM,> 100 µM,> 100 µM,> 100 µM,> 100 µM,> 100 µM,> 100 µM,> 100 µM,> 100 µM,> 100 µM
CC(=O)NNc1nc(C)c(C(/C=C/c2ccc3c(c2)OCO3)=N/Nc2ccccc2)s1,> 100 µM,> 100 µM,> 100 µM,> 100 µM,> 100 µM,> 100 µM,> 100 µM,> 100 µM,> 100 µM,> 100 µM,> 100 µM
COc1cc2c(cc1C[N+](C)(C)CSc1ccccc1)-c1ccccc1CC2,19.6 µM,26.4 µM,27.1 µM,6.75 µM,6.92 µM,5.48 µM,25.5 µM,20.6 µM,> 35.1 µM,> 41.3 µM,23.1 µM
Cc1ccc(C(=O)OC[C@H]2CC[C@@H](n3cc(N(C)C4CCCCC4)c(=O)[nH]c3=O)O2)cc1,> 100 µM,> 100 µM,41.7 µM,> 100 µM,40.9 µM,90.7 µM,43.1 µM,53 µM,> 100 µM,> 100 µM,95.2 µM
Cc1c(-c2c(C)c3ccccc3n2S(=O)(=O)c2ccccc2)n(S(=O)(=O)c2ccccc2)c2ccccc12,42.9 µM,> 100 µM,> 87.3 µM,> 100 µM,> 100 µM,> 100 µM,> 100 µM,> 100 µM,> 100 µM,> 100 µM,> 100 µM
CCC(C)[C@H](NC(=O)N[C@H](C)c1ccccc1)C(=O)OC (some centres undefined),> 100 µM,> 100 µM,> 100 µM,> 100 µM,> 100 µM,> 100 µM,> 100 µM,> 100 µM,> 100 µM,> 100 µM,> 100 µM
Cc1cnoc1NC1=CC(=O)C(=O)c2ccccc21,> 100 µM,> 100 µM,> 100 µM,10.9 µM,> 100 µM,3.01 µM,> 100 µM,58.2 µM,> 100 µM,80.4 µM,> 100 µM
Cc1cc2c(cc1Cl)Sc1nnc(Nc3ccccc3)n1S2(=O)=O,19.1 µM,53.8 µM,15 µM,> 100 µM,57.5 µM,31.2 µM,49.6 µM,14.2 µM,70.9 µM,> 100 µM,43.6 µM
CCC(CCCN)Nc1cc(OC)cc2cccnc12 (centres undefined),> 100 µM,> 100 µM,> 100 µM,> 100 µM,> 100 µM,> 100 µM,> 100 µM,> 100 µM,> 100 µM,> 100 µM,> 100 µM
COc1cccc(N2C(=O)C3c4[nH]c5ccccc5c4C4c5ccccc5CCC4C3C2=O)c1 (centres undefined),> 8.35 µM,> 10 µM,6.81 µM,> 10 µM,> 10 µM,> 10 µM,> 10 µM,6.11 µM,> 10 µM,> 10 µM,> 10 µM
Cc1nc2ccc(S(=O)(=O)Nc3ccc(Cl)cc3)cc2c(=O)n1NC(=O)CNc1ccc(Cl)cc1,> 100 µM,> 100 µM,> 100 µM,> 100 µM,> 100 µM,> 100 µM,> 100 µM,> 100 µM,> 100 µM,> 100 µM,> 100 µM
COc1cc2c3cc1Oc1c(O)c(OC)cc4c1[C@H](Cc1ccc(cc1)Oc1cc(ccc1O)C[C@H]3N(C)CC2)N(C)CC4,21.7 µM,86.3 µM,43.8 µM,17.6 µM,23.7 µM,24.7 µM,31.3 µM,10.9 µM,39.2 µM,57.3 µM,48.6 µM
Cc1ccc(C(=O)N(C2CCCCC2)C2CCCCC2)cc1N=NN(C)C,28.7 µM,27.2 µM,25.2 µM,47.6 µM,18.7 µM,28.3 µM,23.5 µM,37.2 µM,17.9 µM,24.5 µM,24 µM
COc1ccc2nc3cc(Cl)ccc3c(NCCCCCC(=O)NC(COc3cnc4c(ccc5cccnc54)c3)COc3cnc4c(ccc5cccnc54)c3)c2c1,28.1 µM,> 100 µM,35.8 µM,13.6 µM,> 100 µM,> 100 µM,55.5 µM,53.5 µM,> 100 µM,24.4 µM,91.6 µM
Oc1ccc(/C=C\c2nnc(/C=C\c3ccc(O)c(O)c3)s2)cc1O,38.6 µM,16.8 µM,21.8 µM,> 27.9 µM,18.9 µM,20.8 µM,24.8 µM,13.8 µM,25.2 µM,13.3 µM,21.4 µM
Cc1ccc2c(=O)cc(-c3csc4ccccc34)[nH]c2n1,16 µM,0.228 µM,21.8 µM,> 39.7 µM,0.86 µM,< 0.01 µM,0.0101 µM,< 0.0133 µM,> 100 µM,> 100 µM,9.78 µM
C=CC(=O)N1C/C(=C\c2ccc(N(C)C)cc2)C(=O)/C(=C/c2ccc(N(C)C)cc2)C1,> 100 µM,> 100 µM,> 100 µM,> 100 µM,> 100 µM,78.7 µM,> 100 µM,> 100 µM,> 100 µM,> 100 µM,> 100 µM
COc1ccc2c(c1)O[C@@H]1C(O)Oc3cc(OC)c(OC)cc3[C@]1(O)C2=O (some centres undefined),> 100 µM,> 100 µM,> 100 µM,> 100 µM,> 100 µM,> 100 µM,> 100 µM,> 100 µM,> 100 µM,> 100 µM,> 100 µM
